From ChEMBL document CHEMBL5465560, “Selectivity Literature for EUbOPEN Chemogenomic Library” (2024)

Legend:
[1] = molecular target: Casein kinase I isoform delta (Homo sapiens, UniProt P48730); assay: Selectivity interaction (KinomeScan (DiscoverX)) EUB0000595a CSNK1D; conditions: at 10 µM
[2] = molecular target: T1, Mitogen-activated protein kinase 1 (Homo sapiens, UniProt P28482); assay: Selectivity interaction (Kinase panel (DSF assay)) EUB0001559a MAPK1
[3] = molecular target: T2, Serine/threonine-protein kinase 3 (Homo sapiens) (UniProt Q13188); assay: Selectivity interaction (KinomeScan (DiscoverX)) EUB0000045b STK3
T2 sequence (whole entry): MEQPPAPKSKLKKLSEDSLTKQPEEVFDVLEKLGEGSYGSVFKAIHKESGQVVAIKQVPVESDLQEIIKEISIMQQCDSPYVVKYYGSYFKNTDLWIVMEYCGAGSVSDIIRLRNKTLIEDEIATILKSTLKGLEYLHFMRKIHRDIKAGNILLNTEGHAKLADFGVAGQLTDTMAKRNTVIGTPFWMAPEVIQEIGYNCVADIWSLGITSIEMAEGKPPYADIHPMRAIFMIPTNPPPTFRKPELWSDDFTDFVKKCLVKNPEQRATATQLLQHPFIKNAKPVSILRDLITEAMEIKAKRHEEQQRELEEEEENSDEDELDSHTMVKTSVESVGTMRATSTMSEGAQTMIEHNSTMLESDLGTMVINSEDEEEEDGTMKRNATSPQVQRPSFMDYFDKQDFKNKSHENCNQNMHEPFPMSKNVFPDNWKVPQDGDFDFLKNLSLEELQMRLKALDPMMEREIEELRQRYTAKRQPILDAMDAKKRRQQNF

[4] = molecular target: Ribosomal protein S6 kinase alpha-5 (Homo sapiens) (UniProt O75582); assay: Selectivity interaction (KinomeScan (DiscoverX)) EUB0000695a RPS6KA5; conditions: at 100 nM
[5] = molecular target: Casein kinase II subunit alpha (Homo sapiens, UniProt P68400); assay: Selectivity interaction (Kinase panel (Z-LYTE Assay)) EUB0001632a CSNK2A1; conditions: at 10 µM
[6] = molecular target: Serine/threonine-protein kinase pim-1 (Homo sapiens, UniProt P11309); assay: Selectivity interaction (KinomeScan (DiscoverX)) EUB0000666a PIM1; conditions: at 10 µM
Sequence of Serine/threonine-protein kinase pim-1 (P11309 whole entry, looked up): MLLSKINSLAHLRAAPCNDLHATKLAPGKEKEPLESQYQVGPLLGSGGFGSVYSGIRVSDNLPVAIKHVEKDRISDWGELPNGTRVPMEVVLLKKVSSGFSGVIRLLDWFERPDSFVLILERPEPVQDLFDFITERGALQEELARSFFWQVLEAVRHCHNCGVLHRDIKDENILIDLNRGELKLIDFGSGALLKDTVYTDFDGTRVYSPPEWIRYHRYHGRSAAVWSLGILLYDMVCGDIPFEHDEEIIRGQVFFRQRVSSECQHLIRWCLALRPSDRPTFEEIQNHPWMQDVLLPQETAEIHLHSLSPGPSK

[7] = molecular target: Mitogen-activated protein kinase 6 (Homo sapiens) (UniProt Q16659); assay: Selectivity interaction (KinomeScan (DiscoverX)) EUB0000666a MAPK6; conditions: at 10 µM
[8] = molecular target: T3, Gamma-aminobutyric acid receptor subunit alpha-1 (Homo sapiens) (UniProt P14867); assay: Selectivity interaction (Panel of non-epigenetic targets (kinases, GPCRs, ion channels, and transporters, Eurofins) ) EUB0000271b GABRA1; conditions: at 1 µM
T3 sequence (whole entry): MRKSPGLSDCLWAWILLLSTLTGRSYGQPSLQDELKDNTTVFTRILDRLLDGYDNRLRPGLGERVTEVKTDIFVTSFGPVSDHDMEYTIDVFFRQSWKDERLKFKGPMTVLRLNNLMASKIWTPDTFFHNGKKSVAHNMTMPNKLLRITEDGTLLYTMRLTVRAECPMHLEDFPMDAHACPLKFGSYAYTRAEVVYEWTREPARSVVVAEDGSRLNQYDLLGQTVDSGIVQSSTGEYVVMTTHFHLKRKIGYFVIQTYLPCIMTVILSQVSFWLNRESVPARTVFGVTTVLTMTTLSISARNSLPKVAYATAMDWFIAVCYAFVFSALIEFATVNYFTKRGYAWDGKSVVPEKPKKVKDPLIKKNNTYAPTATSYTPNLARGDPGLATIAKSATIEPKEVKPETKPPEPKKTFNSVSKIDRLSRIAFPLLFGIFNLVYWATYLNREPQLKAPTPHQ

[9] = molecular target: Dual specificity protein kinase CLK2 (Homo sapiens, UniProt P49760); assay: Selectivity interaction (KinomeScan (DiscoverX)) EUB0001049a CLK2; conditions: at 1 µM
Sequence of Dual specificity protein kinase CLK2 (P49760 whole entry, looked up): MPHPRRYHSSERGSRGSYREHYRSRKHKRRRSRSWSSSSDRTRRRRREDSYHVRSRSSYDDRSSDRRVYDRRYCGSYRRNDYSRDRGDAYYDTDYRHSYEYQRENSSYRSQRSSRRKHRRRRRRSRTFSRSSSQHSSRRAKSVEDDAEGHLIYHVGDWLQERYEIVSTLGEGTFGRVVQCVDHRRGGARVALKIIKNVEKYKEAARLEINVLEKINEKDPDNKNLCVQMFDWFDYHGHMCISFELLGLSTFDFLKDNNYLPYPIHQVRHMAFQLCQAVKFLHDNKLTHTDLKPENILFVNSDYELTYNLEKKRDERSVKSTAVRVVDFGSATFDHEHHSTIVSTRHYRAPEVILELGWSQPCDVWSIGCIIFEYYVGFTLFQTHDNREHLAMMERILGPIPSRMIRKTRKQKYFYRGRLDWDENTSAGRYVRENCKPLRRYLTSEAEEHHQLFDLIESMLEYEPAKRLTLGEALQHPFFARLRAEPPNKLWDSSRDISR

[10] = molecular target: T1, Mitogen-activated protein kinase 1; assay: Selectivity interaction (KinomeScan (DiscoverX)) EUB0001049a MAPK1; conditions: at 1 µM
Motilin receptor = Motilin receptor (Homo sapiens, UniProt O43193); assay: Selectivity interaction (Motilin receptor binding assay, human recombinant ) EUB0000877a MLNR
[11] = molecular target: Serine/threonine-protein kinase PAK 3 (Homo sapiens) (UniProt O75914); assay: Selectivity interaction (ProQinase) EUB0000171b PAK3
Sequence of Serine/threonine-protein kinase PAK 3 (Homo sapiens) (O75914 whole entry, looked up): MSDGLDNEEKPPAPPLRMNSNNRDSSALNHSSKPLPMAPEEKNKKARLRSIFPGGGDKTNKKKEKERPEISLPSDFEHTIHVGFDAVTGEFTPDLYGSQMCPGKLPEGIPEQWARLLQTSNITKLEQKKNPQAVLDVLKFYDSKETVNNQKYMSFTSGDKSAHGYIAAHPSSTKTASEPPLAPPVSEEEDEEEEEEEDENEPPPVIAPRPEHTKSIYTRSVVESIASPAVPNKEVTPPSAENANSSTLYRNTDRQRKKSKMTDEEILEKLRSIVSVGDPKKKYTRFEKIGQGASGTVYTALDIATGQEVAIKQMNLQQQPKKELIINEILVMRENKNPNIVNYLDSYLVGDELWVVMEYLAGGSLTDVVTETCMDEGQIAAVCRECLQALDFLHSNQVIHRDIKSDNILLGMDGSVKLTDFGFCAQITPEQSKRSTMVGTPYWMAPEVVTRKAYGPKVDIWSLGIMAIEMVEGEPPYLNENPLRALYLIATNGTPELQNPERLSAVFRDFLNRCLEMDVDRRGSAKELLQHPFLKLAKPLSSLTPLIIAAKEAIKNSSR

[12] = molecular target: T4, Mitogen-activated protein kinase kinase kinase 3 (Homo sapiens) (UniProt Q99759); assay: Selectivity interaction (ProQinase) EUB0000171b MAP3K3
T4 sequence (whole entry): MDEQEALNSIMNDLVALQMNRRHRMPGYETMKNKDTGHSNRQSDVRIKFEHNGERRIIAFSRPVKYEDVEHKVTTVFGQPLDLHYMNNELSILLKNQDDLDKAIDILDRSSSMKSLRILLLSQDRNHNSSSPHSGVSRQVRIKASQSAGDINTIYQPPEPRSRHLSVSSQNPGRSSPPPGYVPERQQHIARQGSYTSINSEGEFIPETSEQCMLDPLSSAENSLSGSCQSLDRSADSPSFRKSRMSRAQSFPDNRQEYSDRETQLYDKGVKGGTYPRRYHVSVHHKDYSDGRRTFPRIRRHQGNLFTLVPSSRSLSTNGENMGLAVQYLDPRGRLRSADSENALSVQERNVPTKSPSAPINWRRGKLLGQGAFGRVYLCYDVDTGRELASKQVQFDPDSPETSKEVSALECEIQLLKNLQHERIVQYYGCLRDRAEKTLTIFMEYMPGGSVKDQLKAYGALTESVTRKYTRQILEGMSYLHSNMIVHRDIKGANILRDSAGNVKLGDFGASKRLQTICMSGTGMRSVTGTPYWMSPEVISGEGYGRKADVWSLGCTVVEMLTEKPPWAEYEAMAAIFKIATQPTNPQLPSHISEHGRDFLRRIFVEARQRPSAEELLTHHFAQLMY

[13] = molecular target: Cyclin-dependent kinase 2 (Homo sapiens, UniProt P24941); assay: Selectivity interaction (ActivX KiNativ screen (ex vivo kinase selectivity in human PBMCs)) EUB0001619a CDK2; assay type: cell-based; conditions: PBMC, at 1 µM
[14] = molecular target: Protein arginine N-methyltransferase 6 (Homo sapiens, UniProt Q96LA8); assay: Selectivity interaction (Methyltransferase screen (Scintillation proximity assays)) EUB0000255b PRMT6
Sequence of Protein arginine N-methyltransferase 6 (Q96LA8 whole entry, looked up): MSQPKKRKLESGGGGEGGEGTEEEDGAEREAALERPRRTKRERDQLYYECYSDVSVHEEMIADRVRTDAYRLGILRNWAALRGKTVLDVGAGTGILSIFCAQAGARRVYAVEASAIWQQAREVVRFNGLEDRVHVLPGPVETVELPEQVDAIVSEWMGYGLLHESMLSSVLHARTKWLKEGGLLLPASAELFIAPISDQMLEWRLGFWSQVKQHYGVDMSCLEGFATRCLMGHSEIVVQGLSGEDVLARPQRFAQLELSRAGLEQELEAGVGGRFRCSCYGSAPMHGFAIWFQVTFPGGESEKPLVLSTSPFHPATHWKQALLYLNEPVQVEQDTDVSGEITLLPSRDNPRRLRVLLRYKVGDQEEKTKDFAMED

[15] = molecular target: Mitogen-activated protein kinase kinase kinase 9 (Homo sapiens) (UniProt P80192); assay: Selectivity interaction (Kinase panel (Invitrogen)) EUB0000639a MAP3K9; conditions: at 200 nM
[16] = molecular target: Microtubule-associated serine/threonine-protein kinase 1 (Homo sapiens) (UniProt Q9Y2H9); assay: Selectivity interaction (KinomeScan (DiscoverX)) EUB0000092b MAST1; conditions: at 10 µM
Sequence of Microtubule-associated serine/threonine-protein kinase 1 (Homo sapiens) (Q9Y2H9 whole entry, looked up): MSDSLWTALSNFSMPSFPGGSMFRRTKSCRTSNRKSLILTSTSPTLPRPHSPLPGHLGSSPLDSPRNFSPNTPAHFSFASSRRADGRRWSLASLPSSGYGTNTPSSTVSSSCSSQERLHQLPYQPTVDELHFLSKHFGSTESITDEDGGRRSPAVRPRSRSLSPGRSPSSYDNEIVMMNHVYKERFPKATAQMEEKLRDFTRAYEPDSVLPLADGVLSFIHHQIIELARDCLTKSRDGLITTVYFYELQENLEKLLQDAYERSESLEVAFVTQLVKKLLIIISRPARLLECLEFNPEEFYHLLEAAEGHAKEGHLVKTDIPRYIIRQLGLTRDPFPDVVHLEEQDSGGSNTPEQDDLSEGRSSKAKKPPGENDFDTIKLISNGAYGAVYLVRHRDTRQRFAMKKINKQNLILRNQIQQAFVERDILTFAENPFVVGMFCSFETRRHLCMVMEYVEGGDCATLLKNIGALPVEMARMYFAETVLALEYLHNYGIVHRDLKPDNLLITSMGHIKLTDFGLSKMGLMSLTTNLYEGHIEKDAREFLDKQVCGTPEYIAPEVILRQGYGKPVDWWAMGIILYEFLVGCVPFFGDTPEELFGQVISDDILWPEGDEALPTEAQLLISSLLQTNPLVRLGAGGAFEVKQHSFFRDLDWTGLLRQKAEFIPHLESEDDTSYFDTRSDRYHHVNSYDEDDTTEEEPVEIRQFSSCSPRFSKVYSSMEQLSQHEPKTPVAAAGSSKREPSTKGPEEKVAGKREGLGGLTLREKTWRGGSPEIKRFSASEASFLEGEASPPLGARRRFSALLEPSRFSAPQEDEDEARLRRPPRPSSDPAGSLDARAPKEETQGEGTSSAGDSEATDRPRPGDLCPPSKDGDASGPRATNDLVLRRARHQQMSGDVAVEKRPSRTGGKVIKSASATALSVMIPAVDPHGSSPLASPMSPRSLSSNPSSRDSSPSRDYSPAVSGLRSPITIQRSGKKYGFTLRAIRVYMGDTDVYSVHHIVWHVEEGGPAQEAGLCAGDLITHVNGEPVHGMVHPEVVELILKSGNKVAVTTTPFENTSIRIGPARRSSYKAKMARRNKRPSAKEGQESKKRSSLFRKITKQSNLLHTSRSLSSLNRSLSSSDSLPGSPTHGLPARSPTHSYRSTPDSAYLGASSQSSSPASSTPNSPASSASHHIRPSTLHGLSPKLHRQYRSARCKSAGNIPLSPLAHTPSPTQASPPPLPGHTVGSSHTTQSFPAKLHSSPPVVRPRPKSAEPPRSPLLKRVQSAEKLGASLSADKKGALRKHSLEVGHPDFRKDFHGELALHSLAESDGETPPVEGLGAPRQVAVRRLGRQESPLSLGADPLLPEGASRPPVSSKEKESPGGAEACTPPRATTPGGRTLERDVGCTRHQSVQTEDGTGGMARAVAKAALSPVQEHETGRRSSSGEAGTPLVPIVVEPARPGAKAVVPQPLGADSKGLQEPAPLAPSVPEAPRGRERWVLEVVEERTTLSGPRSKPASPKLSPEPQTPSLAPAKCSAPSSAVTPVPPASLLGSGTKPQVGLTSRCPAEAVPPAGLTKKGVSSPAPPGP

[17] = molecular target: Serine/threonine-protein kinase VRK2 (Homo sapiens) (UniProt Q86Y07); assay: Selectivity interaction (Ambit KINOMEscan and KiNATiv profiling in Jurkat cells) EUB0000090b VRK2; assay type: cell-based; conditions: at 1 µM
[18] = molecular target: Mitogen-activated protein kinase 4 (Homo sapiens) (UniProt P31152); assay: Selectivity interaction (Ambit KINOMEscan and KiNATiv profiling in Jurkat cells) EUB0000090b MAPK4; assay type: cell-based; conditions: at 1 µM
Sequence of Mitogen-activated protein kinase 4 (Homo sapiens) (P31152 whole entry): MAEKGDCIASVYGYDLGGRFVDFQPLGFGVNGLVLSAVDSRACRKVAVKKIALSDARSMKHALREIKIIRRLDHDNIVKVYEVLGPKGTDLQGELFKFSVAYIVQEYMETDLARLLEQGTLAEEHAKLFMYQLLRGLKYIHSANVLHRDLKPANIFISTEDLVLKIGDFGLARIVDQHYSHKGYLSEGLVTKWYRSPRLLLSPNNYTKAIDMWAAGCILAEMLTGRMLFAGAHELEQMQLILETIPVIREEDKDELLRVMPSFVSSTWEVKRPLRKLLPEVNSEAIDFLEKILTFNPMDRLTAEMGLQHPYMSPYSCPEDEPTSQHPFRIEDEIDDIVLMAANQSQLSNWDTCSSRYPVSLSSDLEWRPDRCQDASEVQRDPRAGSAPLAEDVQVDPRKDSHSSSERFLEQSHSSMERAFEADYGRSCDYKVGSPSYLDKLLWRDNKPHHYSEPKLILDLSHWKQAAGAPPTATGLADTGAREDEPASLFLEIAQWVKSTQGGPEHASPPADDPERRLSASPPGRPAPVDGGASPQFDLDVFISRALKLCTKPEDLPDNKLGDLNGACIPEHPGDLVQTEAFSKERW

T1 sequence (P28482 whole entry): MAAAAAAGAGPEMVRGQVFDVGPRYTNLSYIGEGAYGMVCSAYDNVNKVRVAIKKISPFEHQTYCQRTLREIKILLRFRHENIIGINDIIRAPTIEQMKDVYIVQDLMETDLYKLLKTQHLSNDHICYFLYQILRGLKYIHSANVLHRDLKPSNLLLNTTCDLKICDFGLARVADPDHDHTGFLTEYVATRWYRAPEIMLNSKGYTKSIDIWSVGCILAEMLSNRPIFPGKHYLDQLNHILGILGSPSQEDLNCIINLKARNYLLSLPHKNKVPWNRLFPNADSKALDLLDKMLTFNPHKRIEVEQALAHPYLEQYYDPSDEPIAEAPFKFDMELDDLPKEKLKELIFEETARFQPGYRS
Sequence of Casein kinase I isoform delta (P48730 whole entry, looked up, canonical isoform): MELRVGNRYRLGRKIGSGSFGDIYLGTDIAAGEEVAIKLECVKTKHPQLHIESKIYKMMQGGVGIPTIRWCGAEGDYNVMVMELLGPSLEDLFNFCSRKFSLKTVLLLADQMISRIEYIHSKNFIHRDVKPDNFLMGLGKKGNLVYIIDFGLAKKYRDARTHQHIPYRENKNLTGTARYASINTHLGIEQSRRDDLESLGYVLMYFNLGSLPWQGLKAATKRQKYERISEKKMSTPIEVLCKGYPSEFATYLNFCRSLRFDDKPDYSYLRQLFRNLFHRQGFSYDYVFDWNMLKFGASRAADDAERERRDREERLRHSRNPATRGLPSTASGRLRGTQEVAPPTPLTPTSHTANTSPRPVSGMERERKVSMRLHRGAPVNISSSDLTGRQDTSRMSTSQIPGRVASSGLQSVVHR

Compound: COCC(=O)NC/C=C/c1ccc2ncnc(Nc3ccc(Oc4ccc(C)nc4)c(C)c3)c2c1 [CP-724714]
- % of control [1]: 90%

Compound: CN(C(=O)c1cnn2cccnc12)c1cc2c(cc1N1CCOCC1)C(=O)N(C[C@@H](F)C(C)(C)O)C2
- dTM [2]: -1 K

Compound: C=CC(=O)Nc1cc(-n2c(=O)ccc3cnc4ccc(-c5ccc(NS(C)(=O)=O)cc5)cc4c32)ccc1C
- % of control ([3]; at 1 µM): 62%
- % of control ([3]; at 10 µM): 95%

Compound: Cc1cc(F)c(C(=O)Nc2cccc(-c3nncn3C(C)C)n2)cc1-n1cnc(C2CC2)c1
- % of control [4]: 100%

Compound: Cn1cc(-n2cnc3c(NCc4nc5cc(Cl)c(Cl)cc5[nH]4)nc(N4CCOCC4)nc32)cn1
- % of control [5]: -3.76%

Compound: O=C(NOC[C@H](O)CO)c1ccc(F)c(F)c1Nc1ccc(I)cc1F
- % of control [6]: 100%
- % of control [7]: 83%

Compound: Cc1cc(C)cc([C@@H]2c3cc(C)ccc3NC(=O)CN2C(=O)c2ccc(Br)s2)c1
- % of inhibition [8]: -9%

Compound: COc1cc(Nc2nc(C)cc(-c3cnn4nc(OC)ccc34)n2)cc(C(F)(F)F)c1
- % of control [9]: 96%
- % of control [10]: 100%

Compound: CCC(=O)N1CC[C@H](Nc2ncnc3c2CN(c2cnc(OC)c(C(F)(F)F)c2)CC3)C1 [LENIOLISIB]
- IC50 (Motilin receptor): > 30 µM

Compound: C=CC(=O)Nc1cccc(C(=O)Nc2ccc(Nc3cc(-c4[nH]c(SC)nc4C)ccn3)cc2)c1
- % of control ([11]; at 1 µM): 98%
- % of control ([11]; at 5 µM): 83%
- % of control ([12]; at 1 µM): 102%
- % of control ([12]; at 5 µM): 103%

Compound: N#Cc1cccc(-c2c[nH]c3ncnc(N4CCOCC4)c23)c1
- % of inhibition [13]: 9%

Compound: COCCN1CCC(c2cc(CN(C)C(=O)c3cccc(Oc4ccccc4)c3)ccn2)CC1
- % activity ([14]; at 1 µM): 17%
- % activity ([14]; at 10 µM): > 90%

Compound: CC[C@@H]1[C@H](F)C(=O)N[C@@H]1COc1nccc2cc(C(N)=O)c(OC)cc12 [ZIMLOVISERTIB]
- % of inhibition [15]: 5.9%

Compound: CCC(=O)N1CCN(c2ccc(-n3c(=O)ccc4cnc5ccc(-c6cnc7ccccc7c6)cc5c43)cc2C(F)(F)F)CC1
- % of control [16]: 93%

Compound: CN(C)C/C=C/C(=O)Nc1ccc(C(=O)N2CCCC(Nc3ncc(Cl)c(-c4c[nH]c5ccccc45)n3)C2)cc1 (stereo not drawn)
- % of control [17]: 97%
- % of control [18]: 64%
